Entries after “also recorded” stand apart in the source; their conditions may differ. Marks after values point to notes of the source that are not given here.
Key:
[1] = Rate of ethanol oxidation in rats; format: in vivo, rat; conditions: AA rats given ethanol (1.2 per mille), not statistically significant
From the text: (§1) In this experiment nutrition intake, except of course for DGAcs, was controlled to be exactly the same during the experimental day, and three day before the experiment. For AA rats, that are used to alcohol but didn't receive any alcohol in 3 day before the experiment, catabolic redox-activity in the cytosol was controlled by giving rats ethanol (equaling 1.2 per mille blood alcohol concentration, which represents only mild alcohol intoxication to the AA rats). The rate of ethanol oxidation remained the same in all groups.
Experimental session started at 8:00 to 9:00 am. To diminish possible pain during the experiments, all animals were injected subcutaneously with buprenorphine (0.01 mg/kg) a few minutes before the blood samples. During the experimental session no difference in other metabolic activity, e.g. rate of ethanol oxidation, between the control and treatment group was detected from blood samples. […] The resulting supernatants were used for free glycerol measurement with an enzymatic end point commercial assay kit (Boehringer-Mannheim, R-Biopharm, Darmstadt, Germany) according to the manufacturer's protocol except that the assays were modified for use with small volumes of supernatant using a 96-well microplate reader (Labsystems Multiskan RS, Helsinki, Finland). […]

[2] = test system: rat cortical neurons; assay: LDH viability/cytotoxicity of rat cortical neurons (calorie restriction, high doses); format: cell-based
Method: Cell culture. Cortical neurons were dissected from P1 rats and cultured in 96-well plates up to 7 days in the medium containing: neurobasal medium, 1.5% B27 supplement, 1 mM L-glutamine, penicillin/streptomycin.
Treatment of cells with DGAcs was done in two different ways. In all studies the total cultivation time was 7 days (7th day in vitro=7 DIV). In the first study a clear element of calorie restriction (CR) was built in to the standard model provided by the CRO. The other 24 hour pretreatment was without CR (more info in examples 2.1 and 2.2 below). Separately also exceptionally high doses of DGAcs were administered to neurons. […] (Effective dose was […]).
Cell Viability/Cytotoxicity. Cell Viability was Detected by LDH Tests Like in Examples 1.1-1.2.
Cell treatment: concentration of DGAcs (10, 50 and 100 μg/ml) was added into cell culture medium at 4 DIV. After 24 h (at 5 DIV) 25% of medium was changed to fresh containing 1.5× concentration of DGAcs. Same treatment (change 25% with 1.5× concentration) was repeated at 6 DIV. The cells were transferred into Mg^2+-free Locke's buffer containing the same concentrations of DGAcs immediately before imaging experiments (at 7 DIV). For controls the same amount of medium was changed without addition of DGAcs.
Cell treatment according to the protocol renewed only 25% of the medium during 5 DIV and 6 DIV, meaning that neurons received only very small amounts of new nutrition, i.e. experienced calorie restrictions (CR). […] This same phenomenon of increased cell death in CR was already seen with human hepatocytes in previous examples. Likely explanation is the same: DGAcs administration increases metabolic activity in neurons and/or their (aerobic) ATP production and consumption, which leads to enhanced cell cycle control and programmed cell death (apoptosis) in nutritional scarcity. […] Viability loss compared to zero control was highest and statistically significant in 10 μg/ml group but also all other groups experienced loss of viability.

[3] = Hepatic free glycerol after 3 week feeding; format: in vivo, rat
From the text: From the above experiment altogether 12 rats were chosen from 0.1 g/kg/day DGAcs group (N=6) and zero control (N=6) for a measurement of free glycerol from liver samples. Liver samples contained also blood entering the liver from other tissues, thus on top of hepatic tissues the samples reflect also the metabolic situation in other tissues of the body than just the liver.
as §1
Experimental session started at 8:00 to 9:00 am. To diminish possible pain during the experiments, all animals were injected subcutaneously with buprenorphine (0.01 mg/kg) a few minutes before the blood samples. During the experimental session no difference in other metabolic activity, e.g. rate of ethanol oxidation, between the control and treatment group was detected from blood samples. Immediately after the last blood sample, the animals were anesthetized with pentobarbital (40 mg/kg IP, 1% [wt/vol] in saline). Thereafter (5-10 minutes), liver pieces were quickly (within 2-4 seconds) excised and freeze-clamped. Liver samples were stored at […] until glycerol determination. […] The resulting supernatants were used for free glycerol measurement with an enzymatic end point commercial assay kit (Boehringer-Mannheim, R-Biopharm, Darmstadt, Germany) according to the manufacturer's protocol except that the assays were modified for use with small volumes of supernatant using a 96-well microplate reader (Labsystems Multiskan RS, Helsinki, Finland). […]

O.O.O=C([O-])[C@H](O)CO.O=C([O-])[C@H](O)CO.[Ca+2] [DGAcs, D-glyceric acid, calcium salt dehydrate]
rate of ethanol oxidation, maximum acceleration compared to control [1]: ~3.6%
neuronal viability (LDH) under calorie restriction vs zero control ([2]; 10, 50 and 100 μg/ml from 4 DIV, only 25% of medium renewed at 5 and 6 DIV, FIG. 13): dose dependent viability loss; also recorded: confirmed statistically significantly
toxicity to neurons ([2]; 40-200 times the effective treatment dose): No toxicity was observed
Effective dose ([2]; rat cortical neurons): 10-50 μg/m
glycerol levels increased compared to the control ([3]; 0.1 g/kg group): 59%
increase in the concentration of free glycerol compared to the control samples ([3]; 0.1 g/kg group): roughly 0.17 g/kg
Free glycerol concentration (hepatic, including extracellular matrix) ([3]; 0.1 g/kg per day in diet for 3 weeks, AA rats, n = 6, no acute dose): 4.88 +/− 1.21 (6) * Micromoles Per Gram Wet Weight Tissue

From patent US12083084B2, “Method for enhancing energy production and metabolism in cells” (REPLICON HEALTH OY, priority 2013, dated 2024)
